# Test results taken from patent publication US20250313535A1, “ALPHA 4 BETA 7 INTEGRIN MODULATORS AND USES THEREOF” (DICE MOLECULES SV, INC., priority 2022, published 2025).
# Columns and labels:
# Assay type in all cases: cell-based
# α4β7 integrin [1] = target: T1, α4β7 integrin (Homo sapiens (Human), UniProt P13612+P26010); experiment: Integrin Adhesion Assay: Protocol 1 (MAdCAM-coated plate, RPMI-8866 cells, CellTiter GLO readout)
# Protocol: α4β7 and α4β1 inhibition was evaluated in vitro using at least one of the following procedures:
# Integrin Adhesion Assay: Protocol 1
# MAdCAM (R&D Systems, 0.1 ug) was diluted in 50 μL PBS, added to each well of an opaque ELISA plate (Thermo), and incubated overnight at 4° C. Coated plates were washed once with PBS and then blocked with 200 μL of assay buffer (10 mM HEPES, 150 mM NaCl, 1 mM MnCl2, 0.1 mM CaCl2), 1% BSA) for 1 hour at 37° C. and 5% CO2. After incubation, buffer was aspirated from the plates and 50 μL of fresh assay buffer is added. Compounds were added by a compouns dispenser (Tecan) and DMSO concentration was normalized to 1% across each plate. 50 μL of RPMI-8866 cells (2×10^6 per mL) were added to each well and the plates were incubated for 1 hour at 37° C. and 5% CO2. After incubation, plates were allowed to cool to RT for 10 minutes before being washed four times in assay buffer by an automated plate washer (BioTek). After washing, 100 μL of a 1:1 mixture of assay buffer and CellTiter GLO 2.0 reagent (Promega) were added to each well. Plates were mixed for 2 minutes at 1000 rpm and then allowed to incubate an additional 10 minutes before reading out luminescence on a Tecan Spark plate reader. Raw data was converted to percent inhibition based on DMSO only and control compound wells, and curves were analyzed by 4-parameter fit within Dotmatics software.
# α4β7 integrin [2] = target: T1, α4β7 integrin; experiment: Integrin Adhesion Assay: Protocol 4 (MAdCAM-coated plate, RPMI-8866 cells with stable LOF mutation of the ITGB1 gene); conditions: Protocol 4; RPMI-8866 cells with LOF mutation of ITGB1, MAdCAM; read-out: Mean IC50 α4β7 KO
# Method in brief: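 RPMI-8866 cells with CRISPR/Cas9 knockout of ITGB1 (2×10^6/mL) were added to MAdCAM-coated wells with compound (1% DMSO) in HEPES/NaCl buffer with 1 mM MnCl2, 0.1 mM CaCl2 and 1% BSA, then incubated 1 h at 37 °C. After four washes, adherent cells were quantified by CellTiter-Glo luminescence. Percent inhibition versus DMSO and control compound was fitted to 4-parameter curves.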
# α4β1 integrin = α4β1 integrin (Homo sapiens (Human), UniProt P05556+P13612); experiment: Integrin Adhesion Assay: Protocol 5 (VCAM-coated plate, RPMI-8866 cells with stable LOF mutation of the ITGB7 gene); conditions: Protocol 5; RPMI-8866 cells with LOF mutation of ITGB7, VCAM; read-out: Mean IC50 α4β1 KO
# α4β1 integrin, sequence (P13612 34-1032): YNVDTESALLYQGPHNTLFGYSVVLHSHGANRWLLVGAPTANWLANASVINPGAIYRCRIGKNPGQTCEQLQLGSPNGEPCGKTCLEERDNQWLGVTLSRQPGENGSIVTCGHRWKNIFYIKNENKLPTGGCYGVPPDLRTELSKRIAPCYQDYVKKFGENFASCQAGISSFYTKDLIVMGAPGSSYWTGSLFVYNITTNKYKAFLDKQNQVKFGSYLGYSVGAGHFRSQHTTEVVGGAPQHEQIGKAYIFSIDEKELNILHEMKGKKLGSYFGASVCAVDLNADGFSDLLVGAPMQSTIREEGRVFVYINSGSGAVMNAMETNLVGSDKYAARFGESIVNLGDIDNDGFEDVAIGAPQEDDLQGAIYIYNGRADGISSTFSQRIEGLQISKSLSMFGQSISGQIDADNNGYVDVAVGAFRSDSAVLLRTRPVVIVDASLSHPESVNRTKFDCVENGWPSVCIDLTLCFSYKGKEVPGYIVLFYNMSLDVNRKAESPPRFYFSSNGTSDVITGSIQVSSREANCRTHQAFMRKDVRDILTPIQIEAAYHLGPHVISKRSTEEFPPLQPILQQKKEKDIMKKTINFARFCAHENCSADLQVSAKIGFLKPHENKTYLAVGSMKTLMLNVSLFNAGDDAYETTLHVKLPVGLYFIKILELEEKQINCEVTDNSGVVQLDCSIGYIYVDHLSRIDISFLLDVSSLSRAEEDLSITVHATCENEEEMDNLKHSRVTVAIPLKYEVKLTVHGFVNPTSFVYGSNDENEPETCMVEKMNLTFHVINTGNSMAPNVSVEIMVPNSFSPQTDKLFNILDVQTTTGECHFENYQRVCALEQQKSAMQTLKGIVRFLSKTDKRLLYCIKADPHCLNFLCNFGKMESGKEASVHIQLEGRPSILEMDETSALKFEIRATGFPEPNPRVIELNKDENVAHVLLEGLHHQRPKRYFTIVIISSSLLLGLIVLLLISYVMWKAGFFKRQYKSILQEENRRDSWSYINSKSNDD
# α4β1 integrin, sequence (P05556 21-798): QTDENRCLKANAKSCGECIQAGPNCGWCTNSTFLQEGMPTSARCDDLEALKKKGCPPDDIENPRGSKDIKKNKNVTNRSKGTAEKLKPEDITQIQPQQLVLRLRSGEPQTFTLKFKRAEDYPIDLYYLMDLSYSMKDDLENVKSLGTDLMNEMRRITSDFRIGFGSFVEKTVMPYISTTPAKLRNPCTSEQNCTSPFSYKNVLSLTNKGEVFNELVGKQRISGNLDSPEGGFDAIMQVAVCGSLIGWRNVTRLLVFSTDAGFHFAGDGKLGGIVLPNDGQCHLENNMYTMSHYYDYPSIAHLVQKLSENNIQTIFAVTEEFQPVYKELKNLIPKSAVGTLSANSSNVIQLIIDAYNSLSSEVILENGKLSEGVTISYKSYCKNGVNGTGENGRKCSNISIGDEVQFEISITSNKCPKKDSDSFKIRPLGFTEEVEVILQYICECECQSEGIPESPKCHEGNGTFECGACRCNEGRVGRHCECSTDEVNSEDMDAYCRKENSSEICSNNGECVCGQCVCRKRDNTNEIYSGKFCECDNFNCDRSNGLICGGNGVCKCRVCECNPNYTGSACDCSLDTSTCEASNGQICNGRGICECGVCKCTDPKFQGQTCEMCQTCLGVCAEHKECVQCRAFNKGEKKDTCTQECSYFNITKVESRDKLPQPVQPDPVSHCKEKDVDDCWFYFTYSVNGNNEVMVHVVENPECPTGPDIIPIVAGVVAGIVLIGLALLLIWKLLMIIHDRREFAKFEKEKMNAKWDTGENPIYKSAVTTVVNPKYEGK
# Method in brief: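 RPMI-8866 B cells with CRISPR/Cas9 ITGB7 knockout (clonal, verified by flow cytometry) adhered to VCAM-coated wells for 1 h at 37° C in HEPES/NaCl buffer with 1 mM MnCl2, 0.1 mM CaCl2, 1% BSA, 1% DMSO. Bound cells quantified by CellTiter-Glo luminescence after washing; % inhibition versus DMSO and control, 4-parameter fit.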
# [3] = integrin adhesion assay, determined by at least one of the assays described (protocol not specified)
# T1 sequence (P13612 34-1032): as the sequence (P13612 34-1032) above
# T1 sequence (P26010 20-798): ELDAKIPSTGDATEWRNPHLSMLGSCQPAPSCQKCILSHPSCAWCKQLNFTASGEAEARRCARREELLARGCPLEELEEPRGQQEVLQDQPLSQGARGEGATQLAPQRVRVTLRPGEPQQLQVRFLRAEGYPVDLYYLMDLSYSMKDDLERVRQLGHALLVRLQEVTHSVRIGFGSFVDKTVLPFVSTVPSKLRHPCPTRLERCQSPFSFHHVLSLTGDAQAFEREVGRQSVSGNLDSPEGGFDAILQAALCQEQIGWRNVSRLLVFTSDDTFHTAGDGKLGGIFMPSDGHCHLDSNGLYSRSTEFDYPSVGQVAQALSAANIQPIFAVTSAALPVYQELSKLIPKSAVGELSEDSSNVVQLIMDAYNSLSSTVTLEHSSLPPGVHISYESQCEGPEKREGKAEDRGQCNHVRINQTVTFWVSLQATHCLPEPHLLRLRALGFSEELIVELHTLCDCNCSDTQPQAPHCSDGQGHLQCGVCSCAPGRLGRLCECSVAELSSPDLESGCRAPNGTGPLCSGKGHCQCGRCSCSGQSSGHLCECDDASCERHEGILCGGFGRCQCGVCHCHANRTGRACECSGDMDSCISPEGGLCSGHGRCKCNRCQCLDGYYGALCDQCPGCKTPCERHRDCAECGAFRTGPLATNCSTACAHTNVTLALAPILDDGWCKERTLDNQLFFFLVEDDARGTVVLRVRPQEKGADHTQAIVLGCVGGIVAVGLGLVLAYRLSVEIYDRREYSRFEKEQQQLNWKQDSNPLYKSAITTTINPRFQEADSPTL
IC50 (α4β7 integrin [1]; [3]),IC50 (α4β7 integrin [1]),IC50 (α4β7 integrin [2]),IC50 (α4β1 integrin),SMILES
,,0.01 to 0.1 µM,> 1 µM,COc1cccc(CCN2CCC(F)(F)CC2)c1-c1cccc2c(C[C@H](NC(=O)c3c(C)cccc3F)C(=O)O)cccc12 [Compound 1034]
,,0.01 to 0.1 µM,> 1 µM,COc1cccc(CCN2CCC(F)CC2)c1-c1cccc2c(C[C@H](NC(=O)c3c(C)cccc3F)C(=O)O)cccc12 [Compound 1035]
,,< 0.01 µM,> 1 µM,COc1cccc(CCN2CCC[C@@H](F)C2)c1-c1cccc2c(C[C@H](NC(=O)c3c(C)cccc3F)C(=O)O)cccc12 [Compound 1036]
,,< 0.01 µM,> 1 µM,COc1cccc(CCN2CCC[C@H](F)C2)c1-c1cccc2c(C[C@H](NC(=O)c3c(C)cccc3F)C(=O)O)cccc12 [Compound 1037]
,,< 0.01 µM,0.1 to 1 µM,COc1ccc(CN(C)C)c(Cl)c1-c1cccc2c(C[C@H](NC(=O)c3c(C)cccc3F)C(=O)O)cccc12 [Compound 1038]
,,< 0.01 µM,> 1 µM,COc1cnc(CN2CCC3(CCCCC3)CC2)c(OC)c1-c1cccc2c(C[C@H](NC(=O)c3c(C)cccc3F)C(=O)O)cccc12 [Compound 1039]
,,0.1 to 1 µM,> 1 µM,COCc1ccc2c(c1)c(C(F)(F)F)c(-c1cccc3c(CC(NC(=O)c4c(F)cccc4F)C(=O)O)cccc13)c(=O)n2C (centres unmarked) [Compound 1041]
,,< 0.01 µM,0.1 to 1 µM,CN(C)CCc1cccc2c(-c3cccc4c(C[C@H](NC(=O)C5(C(F)(F)F)CCN(CC(F)(F)F)CC5)C(=O)O)cccc34)nccc12 [Compound 1042]
,,0.01 to 0.1 µM,> 1 µM,Cn1c(=O)c(-c2cccc3c(C[C@H](NC(=O)c4c(F)cccc4F)C(=O)O)cccc23)c(C(F)(F)F)c2cc(CO)ccc21 [Compound 1043]
,,< 0.01 µM,0.1 to 1 µM,CCc1c(CN(C)C)ccc(OC)c1-c1cccc2c(C[C@H](NC(=O)c3c(C)cccc3F)C(=O)O)cccc12 [Compound 1044]
,,< 0.01 µM,0.1 to 1 µM,COc1ccc(C2(N(C)C)CC2)c(OC)c1-c1cccc2c(C[C@H](NC(=O)c3c(C)cccc3F)C(=O)O)cccc12 [Compound 1045]
,,0.1 to 1 µM,> 1 µM,Cn1c(=O)c(-c2cccc3c(C[C@H](NC(=O)c4c(F)cccc4F)C(=O)O)cccc23)c(C(F)(F)F)c2cc(C3CCCO3)ccc21 (some centres unmarked) [Compound 1046]
,,0.1 to 1 µM,> 1 µM,Cn1c(=O)c(-c2cccc3c(C[C@H](NC(=O)C4(C(F)(F)F)CCCN(CC5COC5)C4)C(=O)O)cccc23)c(C(F)(F)F)c2ccccc21 (some centres unmarked) [Compound 1049]
,,0.01 to 0.1 µM,> 1 µM,Cn1c(=O)c(-c2cccc3c(C[C@H](NC(=O)C4(C)CCCN(C5COC5)CC4)C(=O)O)cccc23)c(C(F)(F)F)c2ccccc21 (some centres unmarked) [Compound 1050]
,,< 0.01 µM,0.1 to 1 µM,Cn1c(=O)c(-c2cccc3c(C[C@H](NC(=O)c4c(F)cccc4F)C(=O)O)cccc23)c(C(F)(F)F)c2cc(CN)ccc21 [Compound 1051]
,,< 0.01 µM,0.1 to 1 µM,Cc1cccc(F)c1C(=O)N[C@@H](Cc1cccc2c(-c3c(C(F)(F)F)c4cc(CCCN(C)C)ccc4n(C)c3=O)cccc12)C(=O)O [Compound 1053]

# The next lines start with the molecule.
SMILES,IC50 (α4β7 integrin [1]; [3]),IC50 (α4β7 integrin [1]),IC50 (α4β7 integrin [2]),IC50 (α4β1 integrin)
CC1(C)NC(=O)c2c(-c3cccc4c(C[C@H](NC(=O)c5c(F)cccc5F)C(=O)O)cccc34)cccc21 [Compound 5],0.01 to 0.1 µM,,,
Cn1ccc(=O)n(-c2cccc3c(C[C@H](NC(=O)C4(C(F)(F)F)CCCCC4)C(=O)O)cccc23)c1=O [Compound 13],0.01 to 0.1 µM,,,
Cn1ccc(=O)n(-c2cccc3c(C[C@H](NC(=O)c4c(F)ccc(C#N)c4F)C(=O)O)cccc23)c1=O [Compound 32],0.01 to 0.1 µM,,,
Cn1ccc(=O)n(-c2cccc3c(C[C@H](NC(=O)[C@@H]4CCCN4S(=O)(=O)c4ccccc4)C(=O)O)cccc23)c1=O [Compound 109],0.1 to 1 µM,,,
Cn1ccc(=O)n(-c2cccc3c(C[C@H](NC(=O)C4(C)CCCN(CC(F)(F)F)C4)C(=O)O)cccc23)c1=O (some centres unmarked) [Compound 121],> 1 µM,,,
Cc1nn(CC(F)(F)F)c(C)c1C(=O)N[C@@H](Cc1cccc2c(-n3c(=O)ccn(C)c3=O)cccc12)C(=O)O [Compound 122],0.01 to 0.1 µM,,,
Cc1nn(C2CCOCC2)c(C)c1C(=O)N[C@@H](Cc1cccc2c(-n3c(=O)ccn(C)c3=O)cccc12)C(=O)O [Compound 123],0.01 to 0.1 µM,,,
Cc1nccc(O)c1C(=O)N[C@@H](Cc1cccc2c(-n3c(=O)ccn(C)c3=O)cccc12)C(=O)O [Compound 125],> 1 µM,,,
Cn1ccc(=O)n(-c2cccc3c(C[C@H](NC(=O)c4c(F)ccc(NS(=O)(=O)C5CC5)c4F)C(=O)O)cccc23)c1=O [Compound 134],< 0.01 µM,,,
C=CCc1cn(C)c(=O)n(-c2cccc3c(C[C@H](NC(=O)c4c(F)cccc4F)C(=O)O)cccc23)c1=O [Compound 136],0.01 to 0.1 µM,,,
Cn1ccc(C(F)(F)F)c(-c2cncc3c(C[C@H](NC(=O)c4c(F)cccc4F)C(=O)O)cccc23)c1=O [Compound 211],0.01 to 0.1 µM,,,
Cn1ccc(C(F)(F)F)c(-c2ccnc3c(C[C@H](NC(=O)c4c(F)cccc4F)C(=O)O)cccc23)c1=O [Compound 212],0.1 to 1 µM,,,
Cc1cccc(C)c1-c1cc(C(=O)N[C@@H](Cc2cccc3c(-c4c(C(F)(F)F)c5ccccc5n(C)c4=O)cccc23)C(=O)O)c(F)c(C(F)(F)F)c1 [Compound 303],,> 1 µM,,
COc1cccc(CN2CCCC(F)C2)c1-c1cccc2c(C[C@H](NC(=O)c3c(C)cccc3F)C(=O)O)cccc12 (some centres unmarked) [Compound 1015],,,< 0.01 µM,0.1 to 1 µM
COc1ccc(CN2CCCCC2)nc1-c1cccc2c(C[C@H](NC(=O)c3c(C)cccc3F)C(=O)O)cccc12 [Compound 1016],,,< 0.01 µM,0.1 to 1 µM
COc1cccc(CN2CCC(C)(C)CC2)c1-c1cccc2c(C[C@H](NC(=O)c3c(C)cccc3F)C(=O)O)cccc12 [Compound 1017],,,< 0.01 µM,0.1 to 1 µM
COc1cc(CN2CCCCC2)cnc1-c1cccc2c(C[C@H](NC(=O)c3c(C)cccc3F)C(=O)O)cccc12 [Compound 1018],,,< 0.01 µM,> 1 µM
COc1cc(CN2CCCCC2)cc(OC)c1-c1cccc2c(C[C@H](NC(=O)c3c(C)cccc3F)C(=O)O)cccc12 [Compound 1019],,,< 0.01 µM,0.1 to 1 µM
COc1c(CN2CCCCC2)ccnc1-c1cccc2c(C[C@H](NC(=O)c3c(C)cccc3F)C(=O)O)cccc12 [Compound 1020],,,0.01 to 0.1 µM,> 1 µM
Cc1cccc(F)c1C(=O)N[C@@H](Cc1cccc2c(-c3ncccc3CN3CCCCC3)cccc12)C(=O)O [Compound 1021],,,0.01 to 0.1 µM,> 1 µM
COc1cc(CN2CCCCC2)cc(C(F)(F)F)c1-c1cccc2c(C[C@H](NC(=O)c3c(C)cccc3F)C(=O)O)cccc12 [Compound 1023],,,< 0.01 µM,0.1 to 1 µM
COc1cccc(CN2CCC(F)CC2)c1-c1cccc2c(C[C@H](NC(=O)c3c(C)cccc3F)C(=O)O)cccc12 [Compound 1024],,,0.01 to 0.1 µM,> 1 µM
COc1cc(C(F)(F)F)c(CN2CCCCC2)cc1-c1cccc2c(C[C@H](NC(=O)c3c(C)cccc3F)C(=O)O)cccc12 [Compound 1025],,,0.01 to 0.1 µM,> 1 µM
COc1cccc(CN2CCC(C(F)(F)F)CC2)c1-c1cccc2c(C[C@H](NC(=O)c3c(C)cccc3F)C(=O)O)cccc12 [Compound 1026],,,0.01 to 0.1 µM,> 1 µM
COc1cccc(CN2CCC(C(C)(C)C)CC2)c1-c1cccc2c(C[C@H](NC(=O)c3c(C)cccc3F)C(=O)O)cccc12 [Compound 1027],,,< 0.01 µM,0.1 to 1 µM
COc1cccc(CN2CC3CCC(C2)O3)c1-c1cccc2c(C[C@H](NC(=O)c3c(C)cccc3F)C(=O)O)cccc12 [Compound 1028],,,0.01 to 0.1 µM,> 1 µM
CC(C)c1cccc(F)c1C(=O)N[C@@H](Cc1cccc2c(-c3c(C(F)(F)F)c4cc(CN5CCCCC5)ccc4n(C)c3=O)cccc12)C(=O)O [Compound 1029],,,< 0.01 µM,0.01 to 0.1 µM
Cc1cccc(F)c1C(=O)N[C@@H](Cc1cccc2c(-c3c(C(F)(F)F)c4cc(CN5CCCCC5)ccc4n(C)c3=O)cccc12)C(=O)O [Compound 1030],,,< 0.01 µM,0.1 to 1 µM
COc1cccc(CCN2CCC(C)(C)CC2)c1-c1cccc2c(C[C@H](NC(=O)c3c(C)cccc3F)C(=O)O)cccc12 [Compound 1033],,,< 0.01 µM,0.1 to 1 µM
